From patent US5643776A, “Insect diagnostic and control compositions” (The Regents of the University of California, priority 1992, dated 1997)

What was measured:
[1] = target: T1, juvenile hormone esterase (JHE) of Heliothis virescens, wild type (Heliothis virescens, UniProt P12992); experiment: Kinetics of juvenile hormone hydrolysis by juvenile hormone esterase; assay type: biochemical
T1 sequence (P12992 20-564): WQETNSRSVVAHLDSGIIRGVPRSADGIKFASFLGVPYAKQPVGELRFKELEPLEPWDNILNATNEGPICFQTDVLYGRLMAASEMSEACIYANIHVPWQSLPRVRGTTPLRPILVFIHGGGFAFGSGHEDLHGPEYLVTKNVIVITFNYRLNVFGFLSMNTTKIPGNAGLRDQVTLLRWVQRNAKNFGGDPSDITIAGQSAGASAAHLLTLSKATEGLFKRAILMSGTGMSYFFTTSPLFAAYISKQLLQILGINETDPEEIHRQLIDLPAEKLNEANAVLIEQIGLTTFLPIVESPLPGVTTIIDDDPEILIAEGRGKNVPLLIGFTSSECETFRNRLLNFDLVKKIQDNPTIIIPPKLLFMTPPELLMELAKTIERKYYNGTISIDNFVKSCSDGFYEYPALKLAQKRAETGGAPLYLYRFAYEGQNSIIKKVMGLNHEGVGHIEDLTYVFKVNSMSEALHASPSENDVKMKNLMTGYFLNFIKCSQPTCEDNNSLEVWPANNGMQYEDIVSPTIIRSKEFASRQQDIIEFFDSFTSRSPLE

[2] = target: T2, juvenile hormone hemolymph carrier protein of H. virescens (Heliothis virescens, UniProt Q25175); experiment: Binding of juvenile hormone by the hemolymph carrier protein; conditions: juvenile hormone bound by the carrier protein; for H. virescens
T2 sequence (Q25175 19-242): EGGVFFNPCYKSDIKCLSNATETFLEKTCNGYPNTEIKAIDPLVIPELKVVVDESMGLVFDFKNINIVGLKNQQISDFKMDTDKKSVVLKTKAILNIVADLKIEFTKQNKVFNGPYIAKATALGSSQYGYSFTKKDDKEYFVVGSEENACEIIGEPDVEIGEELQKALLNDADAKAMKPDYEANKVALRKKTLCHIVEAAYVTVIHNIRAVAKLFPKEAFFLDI

For juvenile hormone, the kCAT/KM ratio ([1]; substrate JH, JHE of H. virescens and of several other species) was > 10^8, the Km ([1]; substrate juvenile hormone) was 0.06 µM and the Kd [2] was 610 nM.
